This test deals with AMPK. The test can be described thus: AMPK activation, enzyme-linked immunosorbent assay. The format is biochemical. On the procedure:
Compounds 1-54 were assayed for their ability to activate AMPK using an enzyme-linked immunosorbent assay.
Compounds 55-62 of Table 1 were assayed for their ability to activate AMPK using an enzyme-linked immunosorbent assay.
Compounds 63-66 of Table 1 were assayed for their ability to activate AMPK using an enzyme-linked immunosorbent assay.
Compounds 67-71 of Table 1 were assayed for their ability to activate AMPK using an enzyme-linked immunosorbent assay.
Compound 72 of Table 1 was assayed for its ability to activate AMPK using an enzyme-linked immunosorbent assay.

Some results are limits rather than exact numbers.

The term EC50 denotes the concentration giving half of the maximal effect. Take `N#Cc1ccc(CN2CCC(NC(=O)c3ccc(CN4CCN(Cc5ccccc5)CC4)cc3)CC2)cc1` [Compound 61, 4-((4-benzylpiperazin-1-yl)methyl)-N-(1-(4-cyanobenzyl)piperidin-4-yl)benzamide]: the EC50 (Table 3, ELISA) was < 0.1 µM.
Still for that read-out and setting: next, `O=C(NC1CCN(Cc2ccc(C(F)(F)F)cc2)CC1)c1ccc(CN2CCN(Cc3ccccc3)CC2)cc1` [Compound 62, 4-((4-benzylpiperazin-1-yl)methyl)-N-(1-(4-trifluoromethylbenzyl)piperidin-4-yl) benzamide]: < 0.1 µM.
As for `O=C(NC1CCN(Cc2ccccc2)CC1)c1ccc2cc(OC3CCN(Cc4ccc(C(F)(F)F)cc4)CC3)ccc2c1` [Compound 63, N-(1-benzylpiperidin-4-yl)-6-(1-(4-(trifluoro-methyl)benzyl)piperidin-4-yloxy)-2-naphthamide], the EC50 (Table 4, ELISA) was < 0.5 µM.
Still for that read-out and setting: next, `N#Cc1ccc(CN2CCC(Oc3ccc4cc(C(=O)NC5CCN(Cc6ccccc6)CC5)ccc4c3)CC2)cc1` [Compound 64, N-(1-benzylpiperidin-4-yl)-6-(1-(4-cyano-benzyl)piperidin-4-yloxy)-2-naphthamide]: < 0.5 µM; `O=C(NC1CCN(Cc2ccccc2)CC1)c1ccc2cc(OC3CCN(c4ccc(C(F)(F)F)cc4)CC3)ccc2c1` [Compound 65, N-(1-benzylpiperidin-4-yl)-6-(1-(4-(trifluoro-methyl)phenyl)piperidin-4-yloxy)-2-naphthamide]: 1 to 5 µM.
Still for that read-out and setting: as for `CC(C)(C)OC(=O)N1CCC(NC(=O)c2ccc3ccc(OC4CCN(c5ccc(C(F)(F)F)cc5)CC4)cc3c2)CC1` [Compound 66, tert-butyl 4-(7-(1-(4-(trifluoromethyl)phenyl)piperidin-4-yloxy)-2-naphthamido)piperidine-1-carboxylate], the figure is 1 to 5 µM.
On to `CC(C)(C)OC(=O)N1CCC(NC(=O)c2cnc3ccc(OC4CCN(c5ccc(C(F)(F)F)cc5)CC4)cc3c2)CC1` [Compound 67, tert-butyl 4-(6-(1-(4-(trifluoromethyl)phenyl)piperidin-4-yloxy)quinoline-3-carboxamido)piperidine-1-carboxylate], for which the EC50 (Table 5, ELISA) fell in the range of 0.1 to 0.5 µM.
Still for that read-out and setting: next, `O=C(NC1CCNCC1)c1cnc2ccc(OC3CCN(c4ccc(C(F)(F)F)cc4)CC3)cc2c1` [Compound 68, N-(piperidin-4-yl)-6-(1-(4-(trifluoromethyl)phenyl)piperidin-4-yloxy) quinoline-3-carboxamide]: > 5 µM.
In the case of `N#Cc1ccc(CN2CCC(NC(=O)c3cnc4ccc(OC5CCN(c6ccc(C(F)(F)F)cc6)CC5)cc4c3)CC2)cc1` [Compound 69, N-(1-(4-cyanobenzyl)piperidin-4-yl)-6-(1-(4-(trifluoromethyl)phenyl)piperidin-4-yloxy) quinoline-3-carboxamide], the EC50 (Table 5, ELISA) is < 0.1 µM.
Still for that read-out and setting: as for `O=C(NC1CCN(Cc2ccc(C(F)(F)F)cc2)CC1)c1cnc2ccc(OC3CCN(c4ccc(C(F)(F)F)cc4)CC3)cc2c1` [Compound 70, N-(1-(4-(trifluoromethyl)benzyl)piperidin-4-yl)-6-(1-(4-(trifluoromethyl)phenyl)piperidin-4-yloxy) quinoline-3-carboxamide], the figure is < 0.1 µM.

The values above are taken from patent US8895578B2, “Carboxamide, sulfonamide and amine compounds and methods for using the same” (Rigel Pharmaceuticals, Inc., priority 2007, dated 2014).
